Data reported in US20100184134A1, “DUAL CHARGING SYSTEM FOR SELECTIVELY INTRODUCING NON-NATIVE AMINO ACIDS INTO PROTEINS USING AN IN VITRO SYNTHESIS METHOD” (priority 2009, published 2010).

Tests used:
GluRS = GluRS (Escherichia coli, UniProt P04805); details: read-out: IC50 for inhibition of the rate of cell-free synthesis of turboGFP; cell-free reaction at 30° C., fluorescence monitored for 5 h, maximal rate of fluorescence change
Text: (§1) Cell-free extracts or lysates were generated to maximize ribosome yield using rapid growth of high cell density fermentations of E. coli strain KGK10 (Knapp, Goerke et al. (2007) Biotechnol Bioeng, 97, 901-8), essentially as described by Liu et al.(Liu, Zawada et al. (2005) Biotechnol Prog, 21, 460-5) DL-dithiothreitol was not added to the cell lysate following homogenization. A modified “run-off procedure” was used to prepare the cell-free extract. Fermentation volume to generate sufficient cell-free extract was typically 2.5× the desired cell-free reaction volume. To inactivate the reducing activity of the cell extract, iodoacetamide (IAM) at various concentrations was added as previously described (Yang, Kanter et al. (2004) Biotechnol Prog, 20, 1689-96). Gene expression was under the control of the T7 promoter. In order to facilitate translation initiation, genes were synthesized (DNA 2.0, Menlo Park, Calif.) with synonymous codons at the 5′ end of the gene with ATG start codon (N-terminal methionine residue) optimized for mRNA instability as measured by mRNA ΔGfold in the −6 to +37 positions (Kudla, Murray et al. (2009) Science, 324, 255-258) and rare codons were replaced. […]

[1] = target: T1, endogenous activity of PheRS (Escherichia coli, UniProt P08312); assay: Cell-free synthesis of turboGFP Y50TAG with added uncharged tRNAs in the presence of Phe-SA; assay type: biochemical, E. coli; details: 12 nM Phe-SA; uncharged tRNACUA^Phe and tRNAGAA^Phe added
T1 construct: endogenous in cells; host or cells: cell-free extract (lysate) of E. coli strain KGK10
T1 sequence (P08312 whole entry): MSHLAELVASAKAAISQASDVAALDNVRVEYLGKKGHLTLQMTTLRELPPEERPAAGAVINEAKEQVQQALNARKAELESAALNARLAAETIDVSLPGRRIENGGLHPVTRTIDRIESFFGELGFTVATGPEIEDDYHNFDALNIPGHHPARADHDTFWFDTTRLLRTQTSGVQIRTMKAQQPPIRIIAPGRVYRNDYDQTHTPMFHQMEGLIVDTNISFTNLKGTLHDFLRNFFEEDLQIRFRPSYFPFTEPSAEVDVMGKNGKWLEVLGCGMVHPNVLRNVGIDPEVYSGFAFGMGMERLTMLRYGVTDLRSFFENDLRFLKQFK
T1 sequence (P07395 whole entry, further chain): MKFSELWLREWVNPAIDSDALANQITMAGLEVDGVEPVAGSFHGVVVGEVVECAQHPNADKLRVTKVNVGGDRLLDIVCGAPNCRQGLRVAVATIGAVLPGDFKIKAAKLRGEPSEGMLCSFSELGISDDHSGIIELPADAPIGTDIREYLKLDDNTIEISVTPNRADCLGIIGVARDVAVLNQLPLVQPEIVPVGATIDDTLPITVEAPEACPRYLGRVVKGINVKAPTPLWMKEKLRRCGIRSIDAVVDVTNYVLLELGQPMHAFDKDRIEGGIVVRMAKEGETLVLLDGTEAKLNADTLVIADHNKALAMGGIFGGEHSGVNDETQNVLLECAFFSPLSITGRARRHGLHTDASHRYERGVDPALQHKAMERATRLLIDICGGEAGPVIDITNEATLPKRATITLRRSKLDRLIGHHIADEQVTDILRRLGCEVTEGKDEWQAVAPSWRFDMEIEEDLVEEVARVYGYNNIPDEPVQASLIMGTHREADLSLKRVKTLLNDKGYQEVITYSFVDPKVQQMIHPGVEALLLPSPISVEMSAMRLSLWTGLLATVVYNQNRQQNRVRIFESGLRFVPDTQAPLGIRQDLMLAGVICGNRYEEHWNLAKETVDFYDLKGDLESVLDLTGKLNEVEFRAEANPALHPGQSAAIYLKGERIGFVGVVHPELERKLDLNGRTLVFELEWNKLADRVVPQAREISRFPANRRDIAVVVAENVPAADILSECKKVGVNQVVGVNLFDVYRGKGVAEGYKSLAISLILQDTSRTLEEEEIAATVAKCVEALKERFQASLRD
Experimental: A control reaction containing turboGFP Y50TAG plasmid only yields no fluorescence, consistent with the ca. 6 kD truncated product (cf FIG. 22). The incorporation of para-acetyl phenylalanine at position 50 using the UAG-specific E. coli phenylalanine tRNACUA^Phe and tRNAGAA^Phe was measured in the presence 12 nM Phe-SA inhibitor, to inhibit the endogenous activity of PheRS (cf. FIG. 19c). […] In contrast, addition of various concentrations of both charged pAF-tRNACUA^Phe and Phe-tRNAGAA^Phe results in 13-20% of the wild-type fluorescence after 5 h, consistent with significant protein synthesis with incorporation of pAF at position 50.

PheRS = target: T2, PheRS (Escherichia coli, UniProt P08312); assay: Inhibition of the rate of cell-free synthesis of turboGFP by Phe-SA; assay type: biochemical, E. coli
T2 construct: endogenous in cells; host or cells: cell-free extract (lysate) of E. coli strain KGK10
T2 sequence (P07395 whole entry): as the sequence (P07395 whole entry, further chain) above
T2 sequence (P08312 whole entry): as the sequence (P08312 whole entry) above
Text: as §1

GluRS, sequence (P04805 whole entry): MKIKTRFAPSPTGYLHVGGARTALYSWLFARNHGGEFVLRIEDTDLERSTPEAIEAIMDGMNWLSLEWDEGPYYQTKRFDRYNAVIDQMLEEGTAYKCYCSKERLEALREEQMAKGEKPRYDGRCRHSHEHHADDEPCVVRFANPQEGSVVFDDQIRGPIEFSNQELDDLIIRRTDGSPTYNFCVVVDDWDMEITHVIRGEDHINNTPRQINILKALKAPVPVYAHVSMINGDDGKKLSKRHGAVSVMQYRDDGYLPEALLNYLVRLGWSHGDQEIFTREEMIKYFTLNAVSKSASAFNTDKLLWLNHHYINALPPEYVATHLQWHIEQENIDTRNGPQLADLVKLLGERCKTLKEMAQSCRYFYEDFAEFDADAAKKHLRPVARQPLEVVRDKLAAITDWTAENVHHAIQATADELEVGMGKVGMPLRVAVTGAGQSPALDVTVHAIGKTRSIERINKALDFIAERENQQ

| Structure (SMILES) | IC50 (GluRS) | inhibition of PheRS (no protein synthesized with uncharged tRNAs) [1] | IC50 (PheRS) | turboGFP fluorescence activity (percent relative activity) (PheRS; 1 nM Phe-SA inhibitor) |
| --- | --- | --- | --- | --- |
| Nc1ncnc2c1ncn2[C@@H]1O[C@H](COS(=O)(=O)NC(=O)[C@@H](N)CCC(=O)O)[C@@H](O)[C@H]1O [Glu-SA] | 54 nM |  |  |  |
| Nc1ncnc2c1ncn2[C@@H]1O[C@H](COS(=O)(=O)NC(=O)[C@@H](N)Cc2ccccc2)[C@@H](O)[C@H]1O [Phe-SA, 5′-O-[N-(Phenylalanyl)sulfamoyl] adenosine] |  | completely inhibited | 0.8 nM | ~50% |
